Paper doi:10.1101/705459v3 (bioRxiv, 2019)
“Also recorded” adds a separate entry of the source. Peptide text beside a SMILES is read from it.

How the values were obtained:
EOMA cells [1] = assay type: cell-based, murine; conditions: n=3
CMG2 = CMG2 (Homo sapiens, UniProt P58335, C175A/R40C); assay: biochemical; assay type: binding; conditions: for koff: read-out: off-rate / koff (BLI)
TEM8 = TEM8 (Homo sapiens, UniProt Q9H6X2); assay type: binding; conditions: 250nM mCitrine-TEM8, 325nM PA-546; S16 313 nM to 40 μM
TEM8, sequence (Q9H6X2 44-215 limits assumed): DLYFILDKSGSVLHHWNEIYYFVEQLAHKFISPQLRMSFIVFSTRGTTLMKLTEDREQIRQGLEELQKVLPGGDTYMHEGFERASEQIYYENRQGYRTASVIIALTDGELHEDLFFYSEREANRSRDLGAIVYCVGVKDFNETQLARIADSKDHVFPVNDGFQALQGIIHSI

EOMA cells [2] = assay type: cell-based, murine
EA.hy926 cells = assay type: cell-based, human

CMG2, sequence (P58335 40-217 R40C/C175A limits assumed): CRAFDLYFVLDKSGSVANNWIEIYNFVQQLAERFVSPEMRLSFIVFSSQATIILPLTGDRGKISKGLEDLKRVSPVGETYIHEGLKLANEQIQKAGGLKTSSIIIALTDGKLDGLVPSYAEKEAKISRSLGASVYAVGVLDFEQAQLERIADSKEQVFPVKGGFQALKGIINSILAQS

Molecule	reduction in wound closure (EOMA cells [1]) [%]	S16 binding to CMG2 in EDTA (BLI) (CMG2; 10 mM EDTA instead of 2 mM CaCl2 and 1 mM MgCl2, 10 µM S16, n=3)	on-rate (BLI) (CMG2; 1:1 model)	binding on BLI of S16 prepared to encourage monomerization (CMG2; S16 prepared in a fashion that encourages monomerization)	koff (CMG2) [s⁻¹]	S16 binding to CMG2 sensors treated with PA before S16 (BLI) (CMG2; sensors equilibrated with 500 nM PA, then 10 µM S16, n=3)	inhibition of TEM8-PA FRET (TEM8)	proliferation relative to untreated control (EOMA cells [2])	reduction of migration toward serum (EA.hy926 cells)	kon (BLI) (CMG2; representative fit) [M/s]	binding of CMG2 (BLI), in words (CMG2; concentrations up to 30 μM, 3 independent experiments, no binding model fits)	directional migration versus vehicle (EA.hy926 cells)
CC[C@H](C)[C@H](NC(=O)[C@H](C)NC(=O)[C@@H](NC(=O)[C@H](C)NC(=O)[C@@H]1CCCN1)[C@@H](C)CC)C(=O)N[C@@H](C)C(=O)N[C@H](C(=O)N[C@@H](Cc1c[nH]cn1)C(=O)N[C@@H](CO)C(=O)N[C@@H](CCC(N)=O)C(=O)N[C@@H](CC(=O)O)C(=O)N[C@H](C(=O)N[C@@H](CO)C(=O)N[C@H](C(=O)N1CCC[C@H]1C(=O)O)[C@@H](C)CC)C(C)C)C(C)C [Peptide S16] (H-PAIAIAVHSQDVSIP-OH; N-terminus and C-terminus assumed)	60	prevents S16 binding	≈ 2 × 10^2 M^−1s^−1	binding is not observed	~0.0001	reduced	negligible; also recorded: unable to compete	no change in proliferation	~ 90%			
CC[C@H](C)[C@H](NC(=O)[C@H](CO)NC(=O)[C@@H](N)C(C)C)C(=O)NCC(=O)N[C@@H](Cc1ccc(O)cc1)C(=O)N[C@@H](CC(C)C)C(=O)N[C@@H](CC(C)C)C(=O)N[C@H](C(=O)N[C@@H](CCCCN)C(=O)N[C@@H](Cc1c[nH]cn1)C(=O)N[C@@H](CO)C(=O)N[C@@H](CCC(N)=O)C(=O)N[C@H](C(=O)N[C@@H](CC(=O)O)C(=O)N[C@@H](CCC(N)=O)C(=O)O)[C@@H](C)O)C(C)C [Peptide U12] (H-VSIGYLLVKHSQTDQ-OH; N-terminus and C-terminus assumed)					0.0125 ± 0.0002					150 ± 10		
SPIAVDVQSAPIHAI [scrambled S16, reference compound]											minimal binding	no significant difference
